Data as given in patent publication US9701958B2, “Method for selecting polynucleotides encoding antigen-specific immunoglobulin subunits” (priority 2012, dated 2017).
Read-outs that look alike come from different tables or passages of the source.

Columns and labels:
VHE H5 HX-A56R NEO = type: cell-based, vaccinia virus
wild-type vaccinia virus = type: cell-based

CN[C@@H]1[C@@H](O)[C@@H](O[C@@H]2[C@@H](O)[C@H](O[C@H]3O[C@H]([C@@H](C)O)[C@@H](O)[C@H](O)[C@H]3N)[C@@H](N)C[C@H]2N)OC[C@]1(C)O [G418]
inhibition of amplification of vaccinia virus expressing heavy chain linked to a neomycin resistance marker (VHE H5 HX-A56R NEO): no inhibition effect
% Inhibition (VHE H5 HX-A56R NEO; G418 0.125 mg/ml): −26.7%
Titer (VHE H5 HX-A56R NEO; G418 0.125 mg/ml): 2.88E+07
% Inhibition (VHE H5 HX-A56R NEO; G418 0.25 mg/ml): −36.7%
Titer (VHE H5 HX-A56R NEO; G418 0.25 mg/ml): 3.11E+07
% Inhibition (VHE H5 HX-A56R NEO; G418 0.5 mg/ml): −50.0%
Titer (VHE H5 HX-A56R NEO; G418 0.5 mg/ml): 3.41E+07
% Inhibition (VHE H5 HX-A56R NEO; G418 1 mg/ml): −40.0%
Titer (VHE H5 HX-A56R NEO; G418 1 mg/ml): 3.18E+07
% Inhibition (VHE H5 HX-A56R NEO; G418 2 mg/ml): −33.3%
Titer (VHE H5 HX-A56R NEO; G418 2 mg/ml): 3.03E+07
inhibition of amplification of wild-type vaccinia virus (wild-type vaccinia virus; 0.125 to 2 mg/ml of G418, in words): significantly inhibited
% Inhibition (wild-type vaccinia virus; G418 0.125 mg/ml): 60.8%
Titer (wild-type vaccinia virus; G418 0.125 mg/ml): 1.58E+07
% Inhibition (wild-type vaccinia virus; G418 0.25 mg/ml): 79.4%
Titer (wild-type vaccinia virus; G418 0.25 mg/ml): 8.26E+06
% Inhibition (wild-type vaccinia virus; G418 0.5 mg/ml): 93.7%
Titer (wild-type vaccinia virus; G418 0.5 mg/ml): 2.54E+06
% Inhibition (wild-type vaccinia virus; G418 1 mg/ml): 96.6%
Titer (wild-type vaccinia virus; G418 1 mg/ml): 1.36E+06
% Inhibition (wild-type vaccinia virus; G418 2 mg/ml): 99.6%
Titer (wild-type vaccinia virus; G418 2 mg/ml): 1.59E+05
